Experimental data as given in patent US20250195521A1 (Revolution Medicines, Inc., priority 2020, published 2025).

Test system: NCI-H358 (K-Ras G12C)
Assay: CellTiter-Glo cell viability assay, NCI-H358
Type: cell-based, human
Details: 5-day treatment; read-out: H358 Cell Viability assay data (K-Ras G12C, IC50)
Procedure: Determination of Cell Viability in RAS Mutant Cancer Cell Lines Protocol: CellTiter-Glo® Cell Viability Assay
Note—The following protocol describes a procedure for monitoring cell viability of K-Ras mutant cancer cell lines in response to a compound of the invention. Other RAS isoforms may be employed, though the number of cells to be seeded will vary based on cell line used.
Test compounds (132.5 nL) were directly dispensed into the assay plates containing cells. […] On day 5, assay plates and their contents were equilibrated to room temperature for approximately 30 minutes. […] Luminescence was measured using the PerkinElmer Enspire. Data were normalized by the following: (Sample signal/Avg. DMSO)*100. The data were fit using a four-parameter logistic fit.

Row | IC50 [µM] | Structure (SMILES)
1 | < 0.01 | C=CC(=O)Nc1ccc(C(=O)N(C)[C@H](C(=O)N[C@H]2Cc3cc(O)cc(c3)-c3ccc4c(c3)c(c(-c3cccnc3[C@H](C)OC)n4CC)CC(C)(C)COC(=O)[C@@H]3CCCN(N3)C2=O)C(C)C)cn1 [Compound A336]

Same assay, conditions: Homo sapiens, NCI-H358, 120 h, 5-day treatment; read-out: H358 Cell Viability assay data (K-Ras G12C, IC50)

Row | IC50 [µM] | Structure (SMILES)
2 | > 10 | CCn1c(-c2ccccc2CCOC)c2c3cc(ccc31)-c1cc(O)cc(c1)C[C@H](NC(=O)[C@H](C(C)C)N(C)C(=O)c1ccc(NC(=O)/C=C/CN(C)C)nc1)C(=O)N1CCC[C@H](N1)C(=O)OCC(C)(C)C2 [Compound A218]
3 | > 10 | CCn1c(-c2ccccc2CCOC)c2c3cc(ccc31)-c1cc(O)cc(c1)C[C@H](NC(=O)[C@H](C(C)C)N(C)C(=O)c1ccc(NC(=O)/C=C/CN(C)C)cn1)C(=O)N1CCC[C@H](N1)C(=O)OCC(C)(C)C2 [Compound A224]
4 | > 10 | C=CC(=O)N1CC[C@H](C(=O)Nc2ccccc2C(=O)N[C@H]2Cc3cc(O)cc(c3)-c3ccc4c(c3)c(c(-c3cnccc3COC)n4CC)CC(C)(C)COC(=O)[C@@H]3CCCN(N3)C2=O)C1 [Compound A229]
5 | > 10 | C=CC(=O)N1CC[C@H](C(=O)N(C)[C@H](C(=O)N(C)[C@H]2Cc3cc(O)cc(c3)-c3ccc4c(c3)c(c(-c3cccnc3COC)n4CC)CC(C)(C)COC(=O)[C@@H]3CCCN(N3)C2=O)C(C)C)C1 [Compound A230]
6 | > 10 | C=CC(=O)N1CC[C@H](C(=O)N(C)[C@H](C(=O)N[C@H]2Cc3cc(OC4O[C@H](CO)[C@@H](O)[C@H](O)[C@H]4O)cc(c3)-c3ccc4c(c3)c(c(-c3cccnc3COC)n4CC)CC(C)(C)COC(=O)[C@@H]3CCCN(N3)C2=O)C(C)C)C1 (some centres unmarked) [Compound A234]
7 | > 10 | C=CC(=O)N1CC[C@H](C(=O)N(C)[C@H](C(=O)N[C@H]2CN(C)C(=O)Cc3ccc4c(c3)c(c(-c3cccnc3COC)n4CC)CC(C)(C)COC(=O)[C@@H]3CCCN(N3)C2=O)C(C)C)C1 [Compound A239]
8 | > 10 | C=CC(=O)N1CC[C@H](C(=O)N(C)[C@H](C(=O)N[C@H]2C[C@H]3CN(CCO3)c3ccc4c(c3)c(c(-c3cccnc3COC)n4CC)CC(C)(C)COC(=O)[C@@H]3CCCN(N3)C2=O)C(C)C)C1 [Compound A240]
9 | > 10 | C=CC(=O)N1CC[C@H](C(=O)N(C)[C@H](C(=O)N[C@H]2Cc3cc(O)cc(c3)-c3ccc4nc(-c5cccnc5[C@H](C)OC)n(c4c3)CC(C)(C)COC(=O)[C@@H]3CCCN(N3)C2=O)C(C)C)C1 [Compound A242]
10 | > 10 | C=CC(=O)N1CC[C@H](C(=O)N(C)[C@H](C(=O)N[C@H]2Cc3cc(O)cc(c3)-c3ccc4nc(-c5cccnc5COC)c(n4c3)CC(C)(C)COC(=O)[C@@H]3CCCN(N3)C2=O)C(C)C)C1 [Compound A243]
11 | < 0.01 | CCn1c(-c2cccnc2[C@H](C)OC)c2c3cc(ccc31)-c1cc(O)cc(c1)C[C@H](NC(=O)[C@H](C(C)C)N(C)C(=O)[C@H]1CCN(C(=O)C#C[C@@H]3CCCN3C)C1)C(=O)N1CCC[C@H](N1)C(=O)OCC(C)(C)C2 [Compound A247]
12 | > 10 | C=CC(=O)N1CC[C@H](C(=O)N(C)[C@H](C(=O)N[C@H]2CC3=NN=C(S3)c3ccc4c(c3)c(c(-c3cccnc3[C@H](C)OC)n4CC)CC(C)(C)COC(=O)[C@@H]3CCCN(N3)C2=O)C(C)C)C1 [Compound A248]
13 | < 0.01 | C=CC(=O)Nc1ccc(C(=O)N(C)[C@H](C(=O)N[C@H]2Cc3cc(O)cc(c3)-c3ccc4c(c3)c(c(-c3cccnc3[C@H](C)OC)n4CC)CC(C)(C)COC(=O)[C@@H]3CCCN(N3)C2=O)C(C)C)cn1 [Compound A250]
14 | 0.1 to 1 | CCn1c(-c2cccnc2[C@H](C)OC)c2c3cc(ccc31)-c1cc(O)cc(c1)C[C@H](NC(=O)C1CCCC1C(F)F)C(=O)N1CCC[C@H](N1)C(=O)OCC(C)(C)C2 (some centres unmarked) [Compound A254]
15 | > 10 | C=CC(=O)N1CC[C@H](C(=O)N(C)[C@H](C(=O)N[C@@H]2C(=O)N3CCC[C@H](N3)C(=O)OCC(C)(C)Cc3c(-c4cncnc4)n(CC)c4ccc(cc34)-c3cccc(c3)[C@H]2O)C(C)C)C1 [Compound A272]
16 | > 10 | C=CC(=O)N1CC[C@H](C(=O)N(C)[C@H](C(=O)N[C@@H]2C(=O)N3CCC[C@H](N3)C(=O)OCC(C)(C)Cc3c(-c4cncnc4)n(CC)c4ccc(cc34)-c3cccc(c3)[C@H]2OC)C(C)C)C1 [Compound A273]
17 | > 10 | C=CC(=O)N1CC[C@H](C(=O)N(C)[C@H](C(=O)N[C@H]2Cc3ncc(n3C)-c3ccc4c(c3)c(c(-c3cccnc3[C@H](C)OC)n4CC)CC(C)(C)COC(=O)[C@@H]3CCCN(N3)C2=O)C(C)C)C1 [Compound A276]
18 | < 0.01 | C=CC(=O)N1CC[C@H](C(=O)N(C)[C@H](C(=O)N[C@H]2Cc3cc(O)cc(c3)-c3ccc4c(c3)c(c(-c3cccnc3[C@@H]3CCCO3)n4CC)CC(C)(C)COC(=O)[C@@H]3CCCN(N3)C2=O)C(C)C)C1 [Compound A281]

Row | IC50 [µM] | Structure (SMILES)
19 | > 10 | C=CC(=O)N1CC[C@H](C(=O)N(C)[C@H](C(=O)N[C@H]2Cc3nc(ns3)-c3ccc4c(c3)c(c(-c3cncnc3)n4CC)CC(C)(C)COC(=O)[C@@H]3CCCN(N3)C2=O)C(C)C)C1 [Compound A285]
20 | > 10 | C=CC(=O)N1CC[C@H](C(=O)N(C)[C@H](C(=O)N[C@H]2Cc3nc(cs3)-c3ccc4c(c3)c(c(-c3cccnc3[C@H](C)OC)n4CC)CC(C)(C)CN(C)C[C@@H]3CCCN(N3)C2=O)C(C)C)C1 [Compound A287]
21 | > 10 | C=CC(=O)N1CC[C@H](C(=O)N(C)[C@H](C(=O)N[C@H]2Cc3nc(cs3)-c3ccc4c(c3)c(c(-c3cccnc3[C@H](C)OC)n4CC)CC(C)(C)CCC[C@@H]3CCCN(N3)C2=O)C(C)C)C1 [Compound A288]
22 | > 10 | CO[C@@H](C)c1ncccc1-c1nc2ccc3cn2c1CC(C)(C)COC(=O)[C@@H]1CCCN(N1)C(=O)[C@@H](NC(=O)[C@H](C(C)C)N(C)C(=O)[C@H]1CCN(C(=O)C#CC(C)(C)N(C)C)C1)Cc1cccc-3c1 [Compound A311]
23 | 0.01 to 0.1 | CCn1c(-c2cccnc2[C@H](C)OC)c2c3cc(ccc31)-c1csc(n1)C[C@H](NC(=O)C1(F)COC1)C(=O)N1CCC[C@H](N1)C(=O)OCC(C)(C)C2 [Compound A320]
24 | 0.1 to 1 | C=CC(=O)N1CC[C@H](C(=O)N(C)[C@H](C(=O)N[C@H]2Cc3nc(cs3)-c3ccc4c(n3)c(c(-c3cccnc3[C@H](C)OC)n4CC)CC(C)(C)COC(=O)[C@@H]3CCCN(N3)C2=O)C(C)C)C1 [Compound A347, (2S)—N-[(7S,13S)-21-ethyl-20-{2-[(1S)-1-methoxyethyl]pyridin-3-yl}-17,17-dimethyl-8,14-dioxo-15-oxa-4-thia-9,21,25,27,28-pentaazapentacyclo[17.5.2.1^{2,5}0.1^{9,13}0.0^{22,26}]octacosa-1 (25),2,5 (28), 19,22 (26),23-hexaen-7-yl]-3-methyl-2-{N-methyl-1-[(3S)-1-(prop-2-enoyl)pyrrolidin-3-yl]formamido}butanamide]
25 | < 0.01 | CCn1c(-c2cccnc2[C@H](C)OC)c2c3cc(ccc31)-c1csc(n1)C[C@H](NC(=O)[C@H](C(C)C)N(C)C(=O)N1CC(N(C)C(=O)C#CC(C)(C)N3CCC3)C1)C(=O)N1CCC[C@H](N1)C(=O)OCC(C)(C)C2 [Compound A379]
26 | > 10 | C=CC(=O)N1CC[C@H](C(=O)N(C)[C@H](C(=O)N[C@H]2C[C@H]3CN(CCCO3)c3ccc4c(c3)c(c(-c3cccnc3[C@H](C)OC)n4CC)CC(C)(C)COC(=O)[C@@H]3CCCN(N3)C2=O)C(C)C)C1 [Compound A405]
27 | > 10 | C=CC(=O)N1CC[C@H](C(=O)N(C)[C@H](C(=O)NC2C[C@H]3CN(CCCO3)c3ccc4c(c3)c(c(-c3cccnc3[C@H](C)OC)n4CC)CC(C)(C)COC(=O)[C@@H]3CCCN(N3)C2=O)C(C)C)C1 (some centres unmarked) [Compound A429]
28 | > 10 | C=CC(=O)N1CC(OCC(C(=O)N[C@H]2Cc3cc(cc(C(F)F)c3)-c3ccc4c(c3)c(c(-c3cccnc3[C@H](C)OC)n4CC)CC(C)(C)COC(=O)[C@@H]3CCCN(N3)C2=O)C(C)C)C1 (some centres unmarked) [Compound A450]
29 | 0.01 to 0.1 | CCn1c(-c2cccnc2[C@H](C)OC)c2c3cc(ccc31)-c1csc(n1)C[C@H](NC(=O)[C@H](C(C)C)N(C)C(=O)N1CC([C@H](C)CO)C1)C(=O)N1CCC[C@H](N1)C(=O)OCC(C)(C)C2 [Compound A478]
30 | 0.1 to 1 | CCn1c(-c2cccnc2[C@H](C)OC)c2c3cc(ccc31)-c1csc(n1)C[C@H](NC(=O)[C@H](C(C)C)N(C)C(=O)N1CC3(CC(N4CCOCC4)C3)C1)C(=O)N1CCC[C@H](N1)C(=O)OCC(C)(C)C2 [Compound A486]
31 | 0.01 to 0.1 | CCn1c(-c2cccnc2[C@H](C)OC)c2c3cc(ccc31)-c1csc(n1)[C@@H](O)[C@H](NC(=O)[C@H](C(C)C)N(C)C(=O)N1CC(N(C)C)C1)C(=O)N1CCC[C@H](N1)C(=O)OCC(C)(C)C2 [Compound A489]
32 | > 10 | C=CC(=O)N1CC[C@H](C(=O)N(C)[C@H](C(=O)N[C@H]2CCC(=O)N(C)Cc3ccc4c(c3)c(c(-c3cccnc3[C@H](C)OC)n4CC)CC(C)(C)COC(=O)[C@@H]3CCCN(N3)C2=O)C(C)C)C1 [Compound A500]
33 | 0.1 to 1 | C=CC(=O)N1CC[C@H](C(=O)N(C)[C@H](C(=O)N[C@H]2Cc3cccc(c3)-c3ccc4c(c3)c(c(-c3cc(C5=CCN(C)CC5)cnc3[C@H](C)OC)n4CC)CC(C)(C)COC(=O)[C@@H]3CCCN(N3)C2=O)C(C)C)C1 [Compound A514]
34 | < 0.01 | C=CC(=O)N1CC[C@H](C(=O)N(C)[C@H](C(=O)N[C@H]2Cc3cccc(c3)-c3ccc4c(c3)c(c(-c3cc(C5CCN(C)CC5)cnc3[C@H](C)OC)n4CC)CC(C)(C)COC(=O)[C@@H]3CCCN(N3)C2=O)C(C)C)C1 [Compound A515]

Same assay, conditions: Homo sapiens, NCI-H358, 120 h, read-out: H358 Cell Viability assay data (K-Ras G12C, IC50, uM), 5-day treatment

Row | Structure (SMILES) | IC50 [µM]
35 | CCn1c(-c2cccnc2[C@H](C)OC)c2c3cc(ccc31)-c1csc(n1)C[C@H](NC(=O)[C@H](C(C)C)N(C)C(=O)N1CC3CC(C1)N3C)C(=O)N1CCC[C@H](N1)C(=O)OCC(C)(C)C2 [Compound A284] | 0.1 to 1
